Assay type in all cases: biochemical
One experiment concerns the target CDK1/Cyclin B1 (Homo sapiens (Human), UniProt P06493). Briefly: CDK1/Cyclin B1 kinase assay (Nanosyn, Caliper microfluidic). As to conditions: 12-point dose-response, singlicate, at Km for ATP; ATP 40 μM; 3 hr. As for the experimental part:
(§1) Selected compounds disclosed herein were tested in kinase assays by Nanosyn (Santa Clara, CA) to determine their inhibitory effect on these CDKs. The assays were performed using microfluidic kinase detection technology (Caliper Assay Platform). The compounds were tested in 12-point dose-response format in singlicate at Km for ATP. Specifics of each assay are as described below:
CDK1/Cyclin B1: Enzyme concentration: 0.08 nM; ATP concentration: 40 μM; Incubation time: 3 hr.

A further experiment concerns the target CDK3-CYCLIN-E (Homo sapiens (Human), UniProt Q00526). Kind of experiment: CDK3-Cyclin-E kinase assay (Nanosyn, Caliper microfluidic). As to conditions: 12-point dose-response, singlicate, at Km for ATP. As for the experimental part: (§2) Selected compounds disclosed herein were tested in kinase assays by Nanosyn (Santa Clara, CA) to determine their inhibitory effect on these CDKs. The assays were performed using microfluidic kinase detection technology (Caliper Assay Platform). The compounds were tested in 12-point dose-response format in singlicate at Km for ATP.

Another experiment has as its target CDK6/Cyclin D3 (Homo sapiens (Human), UniProt Q00534). Kind of experiment: CDK6/Cyclin D3 kinase assay (Nanosyn, Caliper microfluidic). As to conditions: 12-point dose-response, singlicate, at Km for ATP; ATP 300 μM; 3 hr. As for the experimental part: as §1
CDK6/Cyclin D3: Enzyme concentration: 2 nM; ATP concentration: 300 μM; Incubation time: 3 hr.

The target of the next experiment is CDK5-p25 (Homo sapiens (Human), UniProt Q00535). Briefly: CDK5-p25 kinase assay (Nanosyn, Caliper microfluidic). As to conditions: 12-point dose-response, singlicate, at Km for ATP. How it is done: as §2
Another experiment addresses CDK2/Cyclin A (Homo sapiens (Human), UniProt P24941). Briefly: CDK2/Cyclin A kinase assay (Nanosyn, Caliper microfluidic). As to conditions: 12-point dose-response, singlicate, at Km for ATP; ATP 50 μM; 3 hr. As for the experimental part: as §1
CDK2/Cyclin A: Enzyme concentration: 0.1 nM; ATP concentration: 50 μM; Incubation time: 3 hr.

The target in another experiment is CDK2/Cyclin E (Homo sapiens (Human), UniProt P24941). Briefly: CDK2/Cyclin E kinase assay (Nanosyn, Caliper microfluidic). As to conditions: 12-point dose-response, singlicate, at Km for ATP; ATP 100 μM; 3 hr. How it is done:
as §1
CDK2/Cyclin E: Enzyme concentration: 0.15 nM; ATP concentration: 100 μM; Incubation time: 3 hr.

In another experiment the target is CDK4/Cyclin D1 (Homo sapiens (Human), UniProt P11802). Kind of experiment: CDK4/Cyclin D1 kinase assay (Nanosyn, Caliper microfluidic). The settings on record: 12-point dose-response, singlicate, at Km for ATP; ATP 200 μM; 3 hr. How it is done:
as §1
CDK4/Cyclin D1: Enzyme concentration: 1 nM; ATP concentration: 200 μM; Incubation time: 3 hr.

The next experiment addresses CDK7 (Homo sapiens (Human), UniProt P50613). Kind of experiment: CDK7 kinase assay (Nanosyn, Caliper microfluidic). The settings on record: 12-point dose-response, singlicate, at Km for ATP. As for the experimental part:
as §2

The next experiment has as its target CDK9/Cyclin T1 (Homo sapiens (Human), UniProt P50750). Kind of experiment: CDK9/Cyclin T1 kinase assay (Nanosyn, Caliper microfluidic). The settings on record: 12-point dose-response, singlicate, at Km for ATP; ATP 10 μM; 17 hr. As for the experimental part: as §1
CDK9/Cyclin T1: Enzyme concentration: 5 nM; ATP concentration: 10 μM; Incubation time: 17 hr.

Results on 13 compounds are retold here after US20240150369A1, “CYCLIN-DEPENDENT KINASE INHIBITING COMPOUNDS FOR THE TREATMENT OF MEDICAL DISORDERS” (G1 Therapeutics, Inc., priority 2020, published 2024).

Sequence of CDK6/Cyclin D3 (Q00534 whole entry): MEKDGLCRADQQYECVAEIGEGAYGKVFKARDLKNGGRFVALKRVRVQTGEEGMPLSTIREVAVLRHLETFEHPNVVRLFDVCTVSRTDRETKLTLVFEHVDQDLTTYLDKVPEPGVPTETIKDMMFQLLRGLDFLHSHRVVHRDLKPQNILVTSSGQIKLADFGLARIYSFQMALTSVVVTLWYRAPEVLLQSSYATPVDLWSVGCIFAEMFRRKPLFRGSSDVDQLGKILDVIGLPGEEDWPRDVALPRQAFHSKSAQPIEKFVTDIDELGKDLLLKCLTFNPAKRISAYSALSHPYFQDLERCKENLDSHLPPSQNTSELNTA
Sequence of CDK6/Cyclin D3 (P30281 whole entry partner): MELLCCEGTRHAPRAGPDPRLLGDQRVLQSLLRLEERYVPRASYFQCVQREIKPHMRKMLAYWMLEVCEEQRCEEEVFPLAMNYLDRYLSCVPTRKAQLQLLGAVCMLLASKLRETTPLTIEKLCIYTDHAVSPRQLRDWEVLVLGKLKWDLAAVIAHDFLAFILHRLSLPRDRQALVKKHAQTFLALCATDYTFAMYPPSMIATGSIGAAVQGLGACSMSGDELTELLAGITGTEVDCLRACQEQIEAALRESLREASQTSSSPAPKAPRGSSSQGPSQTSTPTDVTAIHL
Sequence of CDK4/Cyclin D1 (P11802 whole entry): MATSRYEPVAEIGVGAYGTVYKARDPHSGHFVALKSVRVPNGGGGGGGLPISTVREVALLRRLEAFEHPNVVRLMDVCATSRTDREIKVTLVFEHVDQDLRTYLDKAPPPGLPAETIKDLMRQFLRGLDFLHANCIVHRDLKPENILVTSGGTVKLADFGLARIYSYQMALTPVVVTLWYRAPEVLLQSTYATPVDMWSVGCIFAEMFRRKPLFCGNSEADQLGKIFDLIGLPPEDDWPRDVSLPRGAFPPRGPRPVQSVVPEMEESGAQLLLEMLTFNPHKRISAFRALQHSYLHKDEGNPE
Sequence of CDK4/Cyclin D1 (P24385 whole entry partner): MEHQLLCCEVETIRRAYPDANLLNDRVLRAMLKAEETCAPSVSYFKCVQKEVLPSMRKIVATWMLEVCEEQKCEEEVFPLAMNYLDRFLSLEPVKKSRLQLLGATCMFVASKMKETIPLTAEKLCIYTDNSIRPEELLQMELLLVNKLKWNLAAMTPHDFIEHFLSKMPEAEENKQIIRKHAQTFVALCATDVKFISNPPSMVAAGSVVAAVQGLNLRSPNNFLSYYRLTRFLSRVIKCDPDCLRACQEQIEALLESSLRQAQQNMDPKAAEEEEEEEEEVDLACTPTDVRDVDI
Sequence of CDK9/Cyclin T1 (P50750 whole entry): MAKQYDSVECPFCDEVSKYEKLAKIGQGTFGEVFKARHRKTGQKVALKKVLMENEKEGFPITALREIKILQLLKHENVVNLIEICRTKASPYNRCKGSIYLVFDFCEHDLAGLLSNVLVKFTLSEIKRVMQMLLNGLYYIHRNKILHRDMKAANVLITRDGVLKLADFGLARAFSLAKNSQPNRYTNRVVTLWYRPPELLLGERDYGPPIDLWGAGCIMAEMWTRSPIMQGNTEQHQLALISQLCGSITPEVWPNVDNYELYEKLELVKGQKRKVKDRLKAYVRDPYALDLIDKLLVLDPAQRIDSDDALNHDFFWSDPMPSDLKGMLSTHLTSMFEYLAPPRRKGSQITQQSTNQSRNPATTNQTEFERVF
Sequence of CDK9/Cyclin T1 (O60563 whole entry partner): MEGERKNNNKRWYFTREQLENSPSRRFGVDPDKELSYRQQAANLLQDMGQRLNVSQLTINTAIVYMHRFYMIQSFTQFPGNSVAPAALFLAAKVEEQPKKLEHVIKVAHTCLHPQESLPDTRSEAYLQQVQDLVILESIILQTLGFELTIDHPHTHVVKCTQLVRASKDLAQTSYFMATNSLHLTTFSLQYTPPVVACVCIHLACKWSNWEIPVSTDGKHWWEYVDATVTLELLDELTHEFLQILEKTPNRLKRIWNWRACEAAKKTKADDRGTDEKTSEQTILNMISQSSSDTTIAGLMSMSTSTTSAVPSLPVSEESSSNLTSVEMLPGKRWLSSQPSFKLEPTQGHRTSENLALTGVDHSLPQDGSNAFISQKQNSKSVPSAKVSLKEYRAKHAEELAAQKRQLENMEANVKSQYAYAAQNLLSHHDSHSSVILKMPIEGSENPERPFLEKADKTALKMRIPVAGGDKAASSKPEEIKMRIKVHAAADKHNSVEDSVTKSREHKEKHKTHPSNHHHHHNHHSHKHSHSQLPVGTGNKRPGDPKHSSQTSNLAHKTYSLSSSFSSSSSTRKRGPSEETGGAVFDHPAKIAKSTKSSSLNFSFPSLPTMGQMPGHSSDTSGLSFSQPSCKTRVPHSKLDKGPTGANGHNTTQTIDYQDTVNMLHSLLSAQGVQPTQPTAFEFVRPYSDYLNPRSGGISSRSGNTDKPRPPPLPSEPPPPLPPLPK
Sequence of CDK7 (P50613 whole entry): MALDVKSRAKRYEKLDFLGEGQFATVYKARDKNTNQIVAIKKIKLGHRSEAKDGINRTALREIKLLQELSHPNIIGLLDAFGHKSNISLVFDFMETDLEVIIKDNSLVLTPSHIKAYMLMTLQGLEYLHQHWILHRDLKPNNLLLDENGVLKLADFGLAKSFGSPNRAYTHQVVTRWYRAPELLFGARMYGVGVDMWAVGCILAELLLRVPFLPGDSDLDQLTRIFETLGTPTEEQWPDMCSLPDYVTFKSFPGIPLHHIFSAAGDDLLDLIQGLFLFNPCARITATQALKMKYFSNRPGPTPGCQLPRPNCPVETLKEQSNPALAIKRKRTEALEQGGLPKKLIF
Sequence of CDK7 (P51946 whole entry partner): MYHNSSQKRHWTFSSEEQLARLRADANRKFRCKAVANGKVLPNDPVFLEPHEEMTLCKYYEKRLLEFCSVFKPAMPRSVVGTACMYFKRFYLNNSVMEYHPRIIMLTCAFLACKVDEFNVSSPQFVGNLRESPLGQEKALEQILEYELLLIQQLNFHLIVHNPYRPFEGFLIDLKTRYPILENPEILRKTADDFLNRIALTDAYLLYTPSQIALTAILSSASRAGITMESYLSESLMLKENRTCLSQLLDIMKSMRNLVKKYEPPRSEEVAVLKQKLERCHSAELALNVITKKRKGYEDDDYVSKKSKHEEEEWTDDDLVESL
Sequence of CDK7 (P51948 whole entry partner): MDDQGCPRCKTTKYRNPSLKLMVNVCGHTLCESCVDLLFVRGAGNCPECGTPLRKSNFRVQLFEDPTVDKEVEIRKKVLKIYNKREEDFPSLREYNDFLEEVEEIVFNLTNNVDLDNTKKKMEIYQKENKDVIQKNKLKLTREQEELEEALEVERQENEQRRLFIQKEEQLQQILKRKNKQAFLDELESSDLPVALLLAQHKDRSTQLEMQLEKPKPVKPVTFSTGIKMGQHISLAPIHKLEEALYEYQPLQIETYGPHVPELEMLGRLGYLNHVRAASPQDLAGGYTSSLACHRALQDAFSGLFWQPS
Sequence of CDK1/Cyclin B1 (P06493 whole entry): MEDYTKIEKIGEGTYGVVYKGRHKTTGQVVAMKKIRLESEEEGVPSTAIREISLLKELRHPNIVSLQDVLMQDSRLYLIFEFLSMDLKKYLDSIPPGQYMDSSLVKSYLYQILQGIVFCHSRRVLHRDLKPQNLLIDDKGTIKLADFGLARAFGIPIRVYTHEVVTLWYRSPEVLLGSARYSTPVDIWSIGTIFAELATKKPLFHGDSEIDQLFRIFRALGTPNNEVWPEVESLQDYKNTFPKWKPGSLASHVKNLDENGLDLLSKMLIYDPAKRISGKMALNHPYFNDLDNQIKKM
Sequence of CDK1/Cyclin B1 (P14635 whole entry partner): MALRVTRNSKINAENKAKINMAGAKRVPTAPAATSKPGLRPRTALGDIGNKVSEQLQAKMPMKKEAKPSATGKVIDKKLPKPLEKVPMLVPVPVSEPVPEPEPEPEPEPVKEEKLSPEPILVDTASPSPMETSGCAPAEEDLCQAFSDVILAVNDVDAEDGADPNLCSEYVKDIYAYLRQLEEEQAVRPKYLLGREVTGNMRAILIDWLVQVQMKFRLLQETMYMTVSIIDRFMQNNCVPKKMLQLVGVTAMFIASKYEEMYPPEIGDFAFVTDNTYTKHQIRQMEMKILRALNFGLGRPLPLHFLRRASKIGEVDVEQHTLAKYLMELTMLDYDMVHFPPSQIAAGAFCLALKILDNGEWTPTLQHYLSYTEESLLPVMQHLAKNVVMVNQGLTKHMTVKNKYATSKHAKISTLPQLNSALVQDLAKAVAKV
Sequence of CDK5-p25 (Q00535 whole entry): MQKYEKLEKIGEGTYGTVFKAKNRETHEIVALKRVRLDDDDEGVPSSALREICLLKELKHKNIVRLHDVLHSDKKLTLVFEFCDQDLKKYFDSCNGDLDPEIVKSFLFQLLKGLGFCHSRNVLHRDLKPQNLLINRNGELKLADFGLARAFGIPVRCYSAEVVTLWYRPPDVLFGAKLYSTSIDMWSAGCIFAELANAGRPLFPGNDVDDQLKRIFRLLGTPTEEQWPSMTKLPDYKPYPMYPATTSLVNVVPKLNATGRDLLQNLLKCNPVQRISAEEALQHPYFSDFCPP
Sequence of CDK5-p25 (Q15078 99-307 partner): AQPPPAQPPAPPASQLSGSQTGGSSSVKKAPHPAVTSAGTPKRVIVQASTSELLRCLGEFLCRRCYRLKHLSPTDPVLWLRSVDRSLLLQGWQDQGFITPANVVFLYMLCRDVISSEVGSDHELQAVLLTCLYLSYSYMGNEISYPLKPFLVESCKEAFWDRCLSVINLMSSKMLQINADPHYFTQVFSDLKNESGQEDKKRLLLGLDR

Broadly, the IC50 is the point on the concentration scale where inhibition reaches its midpoint. High values mean a need for much substance, low ones inhibition by little substance. `NS(=O)(=O)c1ccc(Nc2ncc3cc4n(c3n2)C2(CCCCC2)C(=O)NC4O)cc1` (stereo not shown) [Compound 1, 4-((6′-hydroxy-8′-oxo-7′,8′-dihydro-6′H-spiro[cyclohexane-1,9′-pyrazino[1′,2′:1,5]pyrrolo[2,3-d]pyrimidin]-2'-yl)amino)benzenesulfonamide]: the IC50 on CDK1/Cyclin B1 is 2.2 nM; against CDK3-CYCLIN-E, 0.94 nM; against CDK6/Cyclin D3, 7.5 nM; against CDK5-p25 it was 0.8 nM; on CDK2/Cyclin A it was 0.16 nM; at CDK2/Cyclin E, 0.34 nM. Besides, the results for the IC50 against CDK4/Cyclin D1, against CDK7 and on CDK9/Cyclin T1 were 3.1 nM, 560 nM and 1.4 nM, respectively.

Take `NS(=O)(=O)c1ccc(Nc2ncc3cc4n(c3n2)C2(CCCCC2)CC(=O)N4)cc1` [Compound 2, 4-((7′-oxo-7′,8′-dihydro-6′H-spiro[cyclohexane-1,9′-pyrrolo[1,5-a:2,3-d′]dipyrimidin]-2′-yl)amino)benzenesulfonamide]: the IC50 came to 3.7 nM on CDK1/Cyclin B1; 2.8 nM against CDK3-CYCLIN-E; 98 nM at CDK6/Cyclin D3; 1.3 nM against CDK5-p25; 0.4 nM at CDK2/Cyclin A; 0.5 nM against CDK2/Cyclin E. Further, the results for the IC50 at CDK4/Cyclin D1, on CDK7 and against CDK9/Cyclin T1 were 41 nM, 200 nM and 4.5 nM, respectively.

Consider `CN1CCN(S(=O)(=O)c2ccc(Nc3ncc4cc5n(c4n3)C3(CCCCC3)CC(=O)N5)cc2)CC1` [Compound 51, 2′-((4-((4-methylpiperazin-1-yl)sulfonyl)phenyl)amino)-6′H-spiro[cyclohexane-1,9′-pyrrolo[1,5-a:2,3-d′]dipyrimidin]-7′(8′H)-one], for which the IC50 against CDK1/Cyclin B1 is 31 nM; against CDK3-CYCLIN-E, 23 nM; against CDK6/Cyclin D3, 63 nM; against CDK2/Cyclin A, 4 nM; against CDK2/Cyclin E it was 5 nM; against CDK4/Cyclin D1, 41 nM. Besides, the IC50 against CDK7 was determined as 66 nM; against CDK9/Cyclin T1, 5 nM.

`CN1CCN(C(=O)c2ccc(Nc3ncc4cc5n(c4n3)C3(CCCCC3)C(=O)NN5)cc2)CC1` [Compound 52, 7′-((4-(4-methylpiperazine-1-carbonyl)phenyl)amino)-1′,2′-dihydro-3′H-spiro[cyclohexane-1,4′-pyrimido[5′,4′:4,5]pyrrolo[2,1-c][1,2,4]triazin]-3′-one]: the IC50 on CDK1/Cyclin B1 worked out at 242 nM; against CDK3-CYCLIN-E it was 75 nM; at CDK6/Cyclin D3 it was 75 nM; at CDK2/Cyclin A it was 18 nM; at CDK2/Cyclin E, 4.5 nM; against CDK4/Cyclin D1 it was 27 nM. In addition, the IC50 is greater than 1000 nM at CDK7 and 318 nM against CDK9/Cyclin T1.

Consider `CN1CCN(C(=O)c2ccc(Nc3ncc4cc5n(c4n3)C3(CCCCC3)C(=O)NC5O)cc2)CC1` (stereo not shown) [Compound 53, 6′-hydroxy-2′-((4-(4-methylpiperazine-1-carbonyl)phenyl)amino)-6′,7′-dihydro-8′H-spiro[cyclohexane-1,9′-pyrazino[1′,2′:1,5]pyrrolo[2,3-d]pyrimidin]-8′-one], for which the IC50 was 27 nM at CDK1/Cyclin B1; 10 nM against CDK3-CYCLIN-E; 5 nM against CDK6/Cyclin D3; 2 nM against CDK2/Cyclin A; 4 nM on CDK2/Cyclin E; 2 nM at CDK4/Cyclin D1. The values for the IC50 at CDK7 and against CDK9/Cyclin T1 were 615 nM and 10 nM, respectively.

`CN1CCN(C(=O)c2ccc(Nc3ncc4cc5n(c4n3)C3(CCCCC3)CC(=O)N5)cc2)CC1` [Compound 54, 2′-((4-(4-methylpiperazine-1-carbonyl)phenyl)amino)-6′H-spiro[cyclohexane-1,9′-pyrrolo[1,5-a:2,3-d′]dipyrimidin]-7′(8′H)-one]: the IC50 on CDK1/Cyclin B1 was found to be 12 nM; at CDK3-CYCLIN-E, 8 nM; against CDK6/Cyclin D3 it was 7 nM; against CDK2/Cyclin A, 2 nM; against CDK2/Cyclin E, 1 nM; on CDK4/Cyclin D1, 3 nM. Also, the values for the IC50 on CDK7 and at CDK9/Cyclin T1 were 144 nM and 7 nM, respectively.

On to `O=C1NCC2(CCCCC2)n2c1cc1cnc(Nc3ccc(C(=O)N4CCNCC4)cc3)nc12` [Compound 55, 2′-((4-(piperazine-1-carbonyl)phenyl)amino)-7′,8′-dihydro-6′H-spiro[cyclohexane-1,9′-pyrazino[1′,2′:1,5]pyrrolo[2,3-d]pyrimidin]-6′-one], for which the IC50 against CDK1/Cyclin B1 came out at 5 nM; against CDK3-CYCLIN-E, 6 nM; against CDK6/Cyclin D3, 0.4 nM; against CDK2/Cyclin A, 0.6 nM; against CDK2/Cyclin E it was 1 nM; against CDK4/Cyclin D1, 0.3 nM. Moreover, the IC50 at CDK7 amounted to 27 nM; against CDK9/Cyclin T1, 1 nM.

In the case of `CC1C(=O)Nc2cc3cnc(Nc4ccc(S(=O)(=O)N5CCN(C)CC5)cc4)nc3n2C12CCCCC2` (stereo not shown) [Compound 59, 8′-methyl-2′-((4-((4-methylpiperazin-1-yl)sulfonyl)phenyl)amino)-6′H-spiro[cyclohexane-1,9′-pyrrolo[1,5-a:2,3-d′]dipyrimidin]-7′(8′H)-one], the half-maximal inhibitory concentration (IC50) on CDK1/Cyclin B1 came to 42 nM; against CDK3-CYCLIN-E it was 57 nM; against CDK6/Cyclin D3, 123 nM; against CDK2/Cyclin A, 5 nM; at CDK2/Cyclin E it was 3 nM; at CDK4/Cyclin D1 it was 137 nM. In addition, the IC50 worked out at 16 nM on CDK7 and 5 nM at CDK9/Cyclin T1.

On to `O=C(c1ccc(Nc2ncc3cc4n(c3n2)C2(CCCCC2)C(=O)NN4)cc1)N1CCNCC1` [Compound 61, 7′-((4-(piperazine-1-carbonyl)phenyl)amino)-1′,2′-dihydro-3′H-spiro[cyclohexane-1,4′-pyrimido[5′,4′:4,5]pyrrolo[2,1-c][1,2,4]triazin]-3′-one], for which the IC50 on CDK1/Cyclin B1 was found to be 133 nM; at CDK3-CYCLIN-E, 58 nM; on CDK6/Cyclin D3, 40 nM; on CDK2/Cyclin A, 17 nM; against CDK2/Cyclin E, 4 nM; at CDK4/Cyclin D1, 17 nM. For the same compound, the IC50 on CDK7 was greater than 1000 nM; at CDK9/Cyclin T1 it was 190 nM.

As to `CN(C)C(=O)c1ccc(Nc2ncc3cc4n(c3n2)C2(CCCCC2)C(=O)NN4)cc1` [Compound 62, N,N-dimethyl-4-((3′-oxo-2′,3′-dihydro-1′H-spiro[cyclohexane-1,4′-pyrimido[5′,4′:4,5]pyrrolo[2,1-c][1,2,4]triazin]-7′-yl)amino)benzamide], the IC50 against CDK1/Cyclin B1 turned out to be 727 nM; on CDK3-CYCLIN-E it was 187 nM; against CDK6/Cyclin D3 it was 216 nM; against CDK2/Cyclin A, 61 nM; on CDK2/Cyclin E, 14 nM; against CDK4/Cyclin D1, 82 nM. Moreover, the figures for the IC50 against CDK7 and against CDK9/Cyclin T1 were greater than 1000 nM and 398 nM, respectively.

As to `NC(=O)c1ccc(Nc2ncc3cc4n(c3n2)C2(CCCCC2)C(=O)NN4)cc1` [Compound 63, 4-((3′-oxo-2′,3′-dihydro-1′H-spiro[cyclohexane-1,4′-pyrimido[5′,4′:4,5]pyrrolo[2,1-c][1,2,4]triazin]-7′-yl)amino)benzamide], the IC50 on CDK1/Cyclin B1 worked out at 574 nM; against CDK3-CYCLIN-E, 96 nM; on CDK6/Cyclin D3, 578 nM; on CDK2/Cyclin A it was 81 nM; on CDK2/Cyclin E, 33 nM; at CDK4/Cyclin D1, 253 nM. In addition, the IC50 came out at 579 nM at CDK7 and 118 nM at CDK9/Cyclin T1.

With `CNC(=O)c1ccc(Nc2ncc3cc4n(c3n2)C2(CCCCC2)C(=O)NN4)cc1` [Compound 64, N-methyl-4-((3′-oxo-2′,3′-dihydro-1′H-spiro[cyclohexane-1,4′-pyrimido[5′,4′:4,5]pyrrolo[2,1-c][1,2,4]triazin]-7′-yl)amino)benzamide], the IC50 against CDK1/Cyclin B1 came out at 505 nM; on CDK3-CYCLIN-E, 105 nM; against CDK6/Cyclin D3 it was 417 nM; at CDK2/Cyclin A, 85 nM; at CDK2/Cyclin E it was 23 nM; against CDK4/Cyclin D1 it was 132 nM. Moreover, the IC50 against CDK7 was greater than 1000 nM; against CDK9/Cyclin T1, 85 nM.

In the case of `O=C(c1ccc(Nc2ncc3cc4n(c3n2)C2(CCCCC2)C(=O)NN4)cc1)N1CCOCC1` [Compound 74, 7′-((4-(morpholine-4-carbonyl)phenyl)amino)-1′,2′-dihydro-3′H-spiro[cyclohexane-1,4′-pyrimido[5′,4′:4,5]pyrrolo[2,1-c][1,2,4]triazin]-3′-one], the IC50 was 258 nM against CDK1/Cyclin B1; 106 nM at CDK3-CYCLIN-E; 137 nM against CDK6/Cyclin D3; 29 nM against CDK2/Cyclin A; 8 nM at CDK2/Cyclin E; 60 nM against CDK4/Cyclin D1. Moreover, the IC50 on CDK7 is greater than 1000 nM; against CDK9/Cyclin T1, 653 nM.
